Consider 19 compounds from patent US5514706A, “Pharmaceutical compounds” (Eli Lilly and Company, priority 1994, dated 1996).

Assay type in all cases: cell-based
Data set [1] concerns plasminogen activator (PA) activity in bovine retinal capillary endothelial cells. The experiment in a line: Activation of retinal capillary endothelial cells by phorbol esters (PA activity). As to conditions: for IC50: Bos taurus, Endothelial cell, dose-response curves of PA activity, read-out: IC50 from dose-response curves for phorbol ester (activation of PA activity). From the text:
(§1) Retinal capillary endothelial cell cultures were initiated from bovine eyes using a modification of the procedure of Buzney et al., Investigative Ophthalmology and Visual Sciences, 24: 470-483. Bovine eyes were transported on ice from a local abattoir. Extraocular muscle was trimmed from the eye, and the eye bisected posterior to the ora serrata. The vitreous and anterior portion of the eye were discarded, and the neuro-retina was gently dissected from the posterior eyecup. The retinas from 20 cattle were pooled and homogenized (5 strokes of a Teflon/glass homogenizer) in Hank's saline. The homogenate was passed through a 350μ filter to remove large debris and a 210μ filter to remove large vessels. The microvessels were trapped on a 85μ filter. The microvessels were resuspended in Hank's saline and digested with 7.5 mg/ml bacterial collagenase (Boeringher Mannhelm, Indianapolis) in Hank's saline for 1 hour at 37° C. The cells were pelleted by centrifugation (100 xg, 10 min), resuspended in 5 ml Endothelial Growth Media (EGM, Clonetics) and seeded in a gelatin-coated T-25 flask. After 24 hours the cells were trypsinized and replated in a gelatin coated T225. At 7 days and again at 14 days the cultures were labeled with acetylated lipoproteins labeled with the fluorescent probe (1,1'-dioctadecyl-3,3,3,3,-tetramethyl-indocarbocyanine perchlorate). The endothelial cells were separated from contaminating cell types using a fluorescent cell sorter as described in Voyta et al., J. Cell Biology. 99: 2034-2040.
(§2) Retinal capillary endothelial cells were seeded into 96-well plates and grown to confluence (10^5 cells/well) in EGM containing 10% fetal bovine serum (FBS). The media was changed to Dubecco's Modified Eagle's Medium with 10% fetal bovine serum 24 hours prior to the assay. The cells were treated with 50 nM 4-b phorbol 12,13-dibutyrate (4-b PDBu) to activate PKC and produce the activated endothelial phenotype characteristic of the diabetic state. The activated cells were treated with a series of dilutions of the test compounds. The phorbol esters and the test compounds were dissolved in DMSO before adding to the culture media. The cultures were incubated at 37° C. for 48 hours. Following treatment, the cells were lysed with 25 mM NH4 OH in 0.5% triton X-100.
(§3) The activation of bovine retinal capillary endothelial cells was monitored through alterations in cellular plasminogen activator (PA) activity in the cell lysates. Plasminogen activator activity was determined in a 50 μl aliquot of cell lysate using the synthetic substrate H-D-valyl-L-leucyl-lysine-p-nitroaniline dihydrochloride (Kabi).
There was also a two fold increase in cell number. […] Dose-response curves generated for 4-b PDBu and 4-b PMA indicated IC50 of 50 nH and 5 nH respectively. Elevated PA activity was observed only after prolonged (at least 8 hours) stimulation with phorbol esters. The PA activity continued to increase in a time and dose dependent manner for up to 72 hours, but constant stimulation with phorbol ester was required to maintain endothelial cell activation.

In data set [2] the test system is bovine retinal capillary endothelial cells. The data set can be described thus: Retinal capillary endothelial cell number after phorbol ester treatment. As to conditions: confluent cells, 48 hours.
Source text: as §1, with “The endothelial cells were separated from contaminating cell types using a fluorescent cell sorter as described in Voyta et al., J. Cell Biology. 99: 2034-2040.” left out

Data set [3] concerns plasminogen activator (PA) activity in bovine retinal capillary endothelial cells. The experiment in a line: Inhibition of phorbol ester-induced activation of retinal capillary endothelial cells (plasminogen activator (PA) activity in cell lysates). The conditions noted are these: Bos taurus, activated with 50 nM 4-b PDBu, 48 hours, cell lysate, read-out: PA ED50.
Source text: as §1, §2, §3
Cell toxicity was determined in a parallel series of cultures using a neutral red assay. Borenfreund, E. and Puerner, J, J. Tiss. Cult. Meth. 9:7 (1984). […] Table 1 discloses the PA ED50 value in this model for representative compounds. The in vitro endothelial cell model was correlated with in situ and in vivo activities by the following models.

Data set [4] concerns cultured smooth cells derived from rabbit aorta. The data set can be described thus: 3H-thymidine incorporation (DNA synthesis) in vascular smooth muscle cells stimulated with platelet-derived growth factor. As to conditions: Oryctolagus cuniculus; 20 ng/ml platelet-derived growth factor, 24 hours. On the procedure: Cells are obtained by explant method as described in Ross, J. Of Cell Bio. 50: 172 (1971). Cells are plated in 96 well microtiter plates for five days. The cultures become confluent and growth arrested. The cells are then transferred to Dulbecco's Modified Eagle's Medium (DMEM) containing 0.5-2% platelet poor plasma, 2 mM L-glutamine, 100 U/ml penicillin, 100 μg ml streptomycin, 1 μ/ml ^3 H-thymidine, 20 ng/ml platelet-derived growth factor and varying concentrations of the compounds. Stock solution of compounds is prepared in dimethyl sulphoxide and then diluted to appropriate concentration (0.01-10 μg/ml) in the above assay medium. Cells are then incubated at 37° C. for 24 hours under 5% CO2 /95% air. At the end of 24 hours, the cells are fixed in methanol. ^3 H thymidine incorporation in DNA was then determined by scintillation counting as described in Bonin et al., Exp. Cell Res. 181:475-482 (1989).
Table 1 discloses the IC50 value of representative compounds tested in the ^3 H-thymidine incorporation model. Thus the invention specifically provides a method of treating restenosis, which comprises administering to a patient in need of treatment an effective amount of a compound of the formula (I).
A general note: Incorporation of labelled thymidine or its analogues reports DNA synthesis.

With `CCCC(=O)O[C@@H]1[C@@H](C)[C@@]2(O)[C@@H](C=C(CO)C[C@@]3(O)C(=O)C(C)=C[C@@H]23)[C@@H]2C(C)(C)[C@]12OC(=O)CCC` [4-a PDBu], the “increase in activation occurred only after treatment with phorbol esters known to activate PKC (yes/no)” value (shortened to “increase in activation occurred only … (yes/no)”) in data set [1] is listed as “not”.
Regarding `CCCC(=O)O[C@@H]1[C@@H](C)[C@@]2(O)[C@@H](C=C(CO)C[C@]3(O)C(=O)C(C)=C[C@@H]23)[C@@H]2C(C)(C)[C@]12OC(=O)CCC` [4-b PDBu, 4-b phorbol 12,13-dibutyrate], in data set [1], the “increase in activation occurred only … (yes/no)” value is listed as “increase in activation occurred” and the IC50 was determined as 50 nM. In data set [1] (confluent cells, 48 hours), the “increase in PA activity associated with the cell layer” value came out at 12 fold and the “increase in PA released into the media” value is 12 fold. Further, the “increase in cell number” value in data set [2] was “two”.
Consider `CCCCCCCCCCCCCC(=O)O[C@@H]1[C@@H](C)[C@@]2(O)[C@@H](C=C(CO)C[C@]3(O)C(=O)C(C)=C[C@@H]23)[C@@H]2C(C)(C)[C@]12OC(C)=O` [4-b PMA], for which, in data set [1], the “increase in activation occurred only … (yes/no)” value is “increase in activation occurred” and the IC50 was found to be 5 nM.
For `N#CC1=C(N)Oc2ccc3ccccc3c2C1c1cccc([N+](=O)[O-])c1` (stereo not drawn) [Example 2, 2-Amino-4-(3-nitrophenyl) -4H-naphtho 2,1-b!pyran-3-carbonitrile], the IC50 in data set [3] was 700 nM; in data set [4], 2500 nM.
The matching figures for `N#CC1=C(N)Oc2ccc3ccccc3c2C1c1ccc([N+](=O)[O-])cc1` (stereo not drawn) [Example 3, 2-Amino-4-(4-nitrophenyl)-4H-naphtho 2,1-b!pyran-3-carbonitrile]: more than 20000 nM and 8000 nM.
`N#CC1=C(N)Oc2ccc3ccccc3c2C1c1ccccc1[N+](=O)[O-]` (stereo not drawn) [Example 4, 2-Amino-4-(2-nitrophenyl)-4H-naphtho 2,1-b!pyran-3-carbonitrile]: the IC50 was more than 20000 nM in data set [3] and more than 30000 nM in data set [4].
As to `N#CC1=C(N)Oc2ccc3ccccc3c2C1c1cccc(Br)c1` (stereo not drawn) [Example 5, 2-Amino-4-(3-bromophenyl)-4H-naphtho 2,1-b!pyran-3-carbonitrile], the IC50 in data set [3] was found to be 700 nM; in data set [4], 1800 nM.
The corresponding values for `N#CC1=C(N)Oc2ccc3ccccc3c2C1c1cccc(Cl)c1` (stereo not drawn) [Example 6, 2-Amino-4-(3-chlorophenyl)-4H-naphtho 2,1-b!pyran-3-carbonitrile] are 1000 nM and 2000 nM.
The compound `N#CC1=C(N)Oc2ccc3ccccc3c2C1c1cccc(F)c1` (stereo not drawn) [Example 7, 2-Amino-4-(3-fluorophenyl)-4H-naphtho 2,1-b!pyran-3-carbonitrile] came in with an IC50 in data set [4] of 2000 nM.
As for `N#CC1=C(N)Oc2ccc3ccccc3c2C1c1ccc(F)cc1` (stereo not drawn) [Example 8, 2-Amino-4-(4-fluorophenyl)-4H-naphtho 2,1-b!pyran-3-carbonitrile], the IC50 in data set [3] worked out at 9000 nM; in data set [4], 1500 nM.
For the compound `N#CC1=C(N)Oc2ccc3ccccc3c2C1c1ccccc1F` (stereo not drawn) [Example 9, 2-Amino-4-(2-fluorophenyl) -4H-naphtho 2,1-b!pyran-3-carbonitrile], the IC50 in data set [3] is more than 20000 nM; in data set [4] it was more than 3000 nM.
The corresponding values for `N#CC1=C(N)Oc2ccc3ccccc3c2C1c1cccc(C(F)(F)F)c1` (stereo not drawn) [Example 10, 2-Amino-4-3-(trifluoromethyl)phenyl!-4H-naphtho 2,1-b!pyran-3-carbonitrile] are 50 nM and 500 nM.
The corresponding values for `N#CC1=C(N)Oc2ccc3cc(C(=O)O)ccc3c2C1c1cccc([N+](=O)[O-])c1` (stereo not drawn) [Example 11, 2-Amino-3-cyano-4-(3-nitrophenyl)-4H-naphtho 2,1-b!pyran-7-carboxylic acid] are more than 20000 nM and more than 30000 nM.
The corresponding values for `N#CC1=C(N)Oc2c(O)cc3ccccc3c2C1c1cccc([N+](=O)[O-])c1` (stereo not drawn) [Example 12, 2-Amino-10-hydroxy-4-(3-nitrophenyl)-4H-naphtho 2,1-b!pyran-3-carbonitrile] are 650 nM and 3000 nM.
`COc1ccc2ccc3c(c2c1)C(c1cccc([N+](=O)[O-])c1)C(C#N)=C(N)O3` (stereo not drawn) [Example 13, 2-Amino-6-methoxy-4-(3-nitrophenyl)-4H-naphtho 2,1-b!pyran-3-carbonitrile]: the IC50 is more than 20000 nM in data set [3] and more than 3000 nM in data set [4].
For `COc1cccc(C2C(C#N)=C(N)Oc3ccc4cc(C(=O)O)ccc4c32)c1` (stereo not drawn) [Example 14, 2-Amino-3-cyano-4-(3-methoxyphenyl)-4H-naphtho 2,1-b!pyran-7-carboxylic acid], in data set [3], the IC50 was more than 100000 nM.
On the same count and under the same terms, to `N#CC1=C(N)Oc2ccc3cc(C(=O)O)ccc3c2C1c1cccc(C(=O)O)c1` (stereo not drawn) [Example 15, 2-Amino-3-cyano-4-(3-carboxyphenyl)-4H-naphtho 2,1-b!pyran-7-carboxylic acid] belongs 5000 nM.
The same measure, in the same setting: then `N#CC1=C(N)Oc2ccc3cc(C(=O)O)ccc3c2C1c1cccc(OC(F)(F)F)c1` (stereo not drawn) [Example 16, 2-Amino-3-cyano-4-3-(trifluoromethoxy)phenyl!-4H-naphtho 2,1-b!pyran-7-carboxylic acid], with more than 100000 nM.
On to `CCOC=NC1=C(C#N)C(c2cccc([N+](=O)[O-])c2)c2c(ccc3cc(C(=O)OCC)ccc23)O1` (stereo not drawn) [Example 17, Ethyl 3-cyano-2-ethoxymethyleneamino-4-(3-nitrophenyl)-4H-naphtho 2,1-b!pyran-7-carboxylate], for which the IC50 worked out at 8000 nM in data set [3] and 6000 nM in data set [4].
